Data on 13 compounds can be found in ChEMBL document CHEMBL5614400, “Emerging therapeutics: The imidazo[1,2-b]pyridazine scaffold as a novel drug candidate for eumycetoma, a neglected tropical disease” (Eur J Med Chem, 2024).

In general, IC50 refers to the midpoint of a concentration-inhibition curve. High values mean lower potency, low ones higher potency. In general, MIC refers to the smallest concentration in the dilution series that meets the test's criterion for growth inhibition. Low readings indicate inhibition by little substance, high ones a need for much substance.

≈ marks a conversion by molar mass, not a printed value.

Data set [1] deals with Madurella mycetomatis. Description: Antifungal activity against Madurella mycetomatis MM55 by XTT assay. In kind it is functional, organism-based. For orientation: Formazan colour is commonly taken as a measure of viable cells.
Data set [2] has as its system Madurella mycetomatis. The experiment in a line: Antifungal activity against Madurella mycetomatis I11 by XTT assay. It is filed as functional.
Data set [3] relates to Madurella mycetomatis. Description: Antifungal activity against Madurella mycetomatis P1 by XTT assay. In kind it is functional.
Data set [4] concerns Madurella mycetomatis. The experiment in a line: Antifungal activity against Madurella mycetomatis CBS247.48 by XTT assay. In kind it is functional.
Data set [5] concerns Madurella mycetomatis. Description: Antifungal activity against Madurella mycetomatis I1 by XTT assay. It is filed as functional.
In data set [6] the test system is Madurella mycetomatis. Description: Antifungal activity against Madurella mycetomatis SO1 by XTT assay. It is filed as functional.
For data set [7], the system named is Madurella mycetomatis. Description: Antifungal activity against Madurella mycetomatis I3 by XTT assay. In kind it is functional.
Data set [8] relates to Madurella mycetomatis. The experiment in a line: Antifungal activity against Madurella mycetomatis Peru72012 by XTT assay. It is filed as functional.
Data set [9] is described as follows: Selectivity index, ratio of IC50 for mouse NIH3T3 cells to IC50 for Madurella mycetomatis MM55. It is filed as toxicity. As to conditions: read-out: Ratio IC50.
The test system of data set [10] is Madurella mycetomatis. Description: Antifungal activity against Madurella mycetomatis AL1 by XTT assay. It is filed as functional.
Data set [11] is described as follows: Cytotoxicity against mouse NIH3T3 cells incubated for 5 days by MTT assay. In kind it is toxicity, cell-based.
Data set [12] concerns Madurella mycetomatis. Description: Antifungal activity against Madurella mycetomatis MM50 by XTT assay. It is filed as functional.

Take `CN1CCN(c2cc(-c3ccsc3)c3nc(-c4ccc(F)cc4)cn3n2)CC1`: the IC50 in the data set with Madurella mycetomatis [1] (Madurella mycetomatis, MM55) was 5 µM.
Still for that read-out and setting: under `CC(C)CCn1cc(-c2cc(N3CCN(C)CC3)nn3cc(-c4ccc(F)cc4)nc23)cn1` stands 10.3 µM.
With `OCCN1CCN(c2cc(-c3ccsc3)c3nc(-c4ccccc4F)cn3n2)CC1`, the MIC is 4 µM (≈ 1.69 µg/mL) against Madurella mycetomatis [2]; 8 µM (≈ 3.39 µg/mL) in the data set on Madurella mycetomatis [3]; 8 µM (≈ 3.39 µg/mL) against Madurella mycetomatis [4]; 8 µM (≈ 3.39 µg/mL) against Madurella mycetomatis [5]; 8 µM (≈ 3.39 µg/mL) against Madurella mycetomatis [6]; 8 µM (≈ 3.39 µg/mL) with Madurella mycetomatis [7]. The MIC was determined as 8 µM (≈ 3.39 µg/mL) with Madurella mycetomatis [8]; 8 µM (≈ 3.39 µg/mL) against Madurella mycetomatis [10]; 8 µM (≈ 3.39 µg/mL) with Madurella mycetomatis [1] (Madurella mycetomatis, MM55); 4 µM (≈ 1.69 µg/mL) with Madurella mycetomatis [12]. For the same compound, the selectivity ratio in [9] worked out at 4. Besides, the IC50 at 5 days in data set [11] came to 10.5 µM. In addition, in the data set with Madurella mycetomatis [1] (Madurella mycetomatis, MM55), it took 1.3 µM to reach half-maximal inhibition (IC50).
Compound `CN1CCN(c2cc(-c3cccc4[nH]ccc34)c3nc(-c4ccccc4)cn3n2)CC1` came in with an IC50 with Madurella mycetomatis [1] (Madurella mycetomatis, MM55) of 8.3 µM. This counts as single-digit micromolar.
Regarding `CN1CCN(c2cc(-c3cccc4[nH]ccc34)c3nc(-c4ccc(F)cc4)cn3n2)CC1`, in the data set on Madurella mycetomatis [1], the IC50 turned out to be 10.6 µM.
With `CN1CCN(c2cc(-c3ccc4[nH]ccc4c3)c3nc(-c4ccc(F)cc4)cn3n2)CC1`, the MIC in the data set on Madurella mycetomatis [2] was found to be 4 µM (≈ 1.71 µg/mL); in the data set on Madurella mycetomatis [3], 8 µM (≈ 3.41 µg/mL); with Madurella mycetomatis [4] it was 4 µM (≈ 1.71 µg/mL); in the data set on Madurella mycetomatis [5], 4 µM (≈ 1.71 µg/mL); with Madurella mycetomatis [6], 8 µM (≈ 3.41 µg/mL); with Madurella mycetomatis [7], 8 µM (≈ 3.41 µg/mL). Besides, the minimal inhibitory concentration (MIC) against Madurella mycetomatis [8] is 4 µM (≈ 1.71 µg/mL); against Madurella mycetomatis [10], 8 µM (≈ 3.41 µg/mL); with Madurella mycetomatis [1] (Madurella mycetomatis, MM55), 16 µM (≈ 6.82 µg/mL); with Madurella mycetomatis [12], 4 µM (≈ 1.71 µg/mL). Besides, the selectivity ratio in [9] is 2.6. This compound yielded an IC50 at 5 days in data set [11] of 9 µM. In the data set on Madurella mycetomatis [1] (Madurella mycetomatis, MM55), this compound returned an IC50 of 3.4 µM.
With `CN1CCN(c2cc(-c3ccsc3)c3nc(-c4cccc(F)c4)cn3n2)CC1`, the minimum inhibitory concentration (MIC) against Madurella mycetomatis [2], in the data set with Madurella mycetomatis [3], against Madurella mycetomatis [4], with Madurella mycetomatis [5], against Madurella mycetomatis [6] and against Madurella mycetomatis [7] was 8 µM (≈ 3.15 µg/mL) in each case. Further, the MIC worked out at 8 µM (≈ 3.15 µg/mL) in the data set with Madurella mycetomatis [8]; 8 µM (≈ 3.15 µg/mL) against Madurella mycetomatis [10]; 8 µM (≈ 3.15 µg/mL) in the data set with Madurella mycetomatis [1] (Madurella mycetomatis, MM55); 8 µM (≈ 3.15 µg/mL) with Madurella mycetomatis [12]. In [9], the selectivity ratio was found to be 2.5. The compound further showed an IC50 at 5 days in data set [11] of 11.9 µM. Further, the half-inhibitory concentration (IC50) in the data set on Madurella mycetomatis [1] (Madurella mycetomatis, MM55) was 2.1 µM.
Regarding `COc1ccccc1-c1cn2nc(N3CCN(C)CC3)cc(-c3cccc4[nH]ccc34)c2n1`, the IC50 with Madurella mycetomatis [1] (Madurella mycetomatis, MM55) is over 16 µM.
Still for that read-out and setting: the result for `CN1CCN(c2cc(-c3ccc4cc[nH]c4c3)c3nc(-c4ccc(F)cc4)cn3n2)CC1` reads 7.1 µM.
On to `CN1CCN(c2cc(-c3ccsc3)c3nc(-c4ccccc4F)cn3n2)CC1`, for which the MIC against Madurella mycetomatis [2], with Madurella mycetomatis [3], with Madurella mycetomatis [4], against Madurella mycetomatis [5], against Madurella mycetomatis [6] and against Madurella mycetomatis [7] was 8 µM (≈ 3.15 µg/mL) each time. Besides, the MIC in the data set with Madurella mycetomatis [8] was determined as 16 µM (≈ 6.3 µg/mL); in the data set on Madurella mycetomatis [10], 8 µM (≈ 3.15 µg/mL); against Madurella mycetomatis [1] (Madurella mycetomatis, MM55), 8 µM (≈ 3.15 µg/mL); in the data set on Madurella mycetomatis [12], 8 µM (≈ 3.15 µg/mL). Moreover, in data set [9], the selectivity ratio was 3.7. In data set [11], this compound showed an IC50 at 5 days of 14.6 µM. In the data set on Madurella mycetomatis [1] (Madurella mycetomatis, MM55), inhibition was half-maximal at 1.9 µM (IC50).
On to `OCCN1CCN(c2cc(-c3ccsc3)c3nc(-c4ccc(F)cc4)cn3n2)CC1`, for which the IC50 with Madurella mycetomatis [1] (Madurella mycetomatis, MM55) turned out to be 5.3 µM.
In the data set with Madurella mycetomatis [1], `CN1CCN(c2cc(-c3cnn(C)c3)c3nc(-c4ccc(F)cc4)cn3n2)CC1` showed an IC50 of 9.5 µM.
On to `COc1ccccc1-c1cn2nc(N3CCN(C)CC3)cc(-c3ccsc3)c2n1`, for which the midpoint of inhibition in the data set on Madurella mycetomatis [1] (Madurella mycetomatis, MM55), the IC50, lay at 5.8 µM.
